Tests used:
[1] = previously discovered, PTL 2; cited from earlier work
[2] = test system: phosphorylated STAT3 signal; assay: Intracellular leptin sensitivity in hypothalamic organ culture (phosphorylated STAT3 immunostaining); type: cell-based; conditions: peptide 100 μM preincubation 24 hours, leptin 30 nM 1 hour
Procedure: Subsequently, formalin fixation was performed and the phosphorylated STAT3 signal was detected by an immunostaining chemistry method (N=6-7). […] The data were analyzed by one-way analysis of variance, followed by multiple comparisons by Tukey's test. […] The error bars represent standard error (n=6-8).

[3] = molecular target: T1, MC4 receptor (Mus musculus, UniProt P56450); assay: Impact of HS024 on high-fat diet intake suppression induced by oral YHIEPV; type: in vivo, mice; conditions: YHIEPV oral plus HS024 intracerebroventricular; food intake 4 hours later
T1 construct: from tissue; host or cells: living male mice (whole animal)
T1 sequence (P56450 whole entry): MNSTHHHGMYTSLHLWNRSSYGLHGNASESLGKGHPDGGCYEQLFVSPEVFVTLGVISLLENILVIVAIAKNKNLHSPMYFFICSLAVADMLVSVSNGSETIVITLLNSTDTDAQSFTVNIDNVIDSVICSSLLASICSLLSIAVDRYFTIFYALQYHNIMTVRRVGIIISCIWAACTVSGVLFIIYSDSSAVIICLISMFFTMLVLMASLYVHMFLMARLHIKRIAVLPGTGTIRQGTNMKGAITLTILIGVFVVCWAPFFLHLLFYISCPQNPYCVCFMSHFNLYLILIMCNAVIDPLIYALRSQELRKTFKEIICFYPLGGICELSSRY
Procedure: (§1) Male mice raised on a high-fat diet (60% kcal fat) were administered under overnight fasting conditions with YHIEPV (oral administration) and naltrindole (intraperitoneal administration), which is a δ opioid receptor inhibitor, or HS024 (intracerebroventricular administration), which is an MC4 receptor inhibitor, and the amount of food intake was measured 4 hours later (N=13-15). The δ opioid receptor and MC4 receptor are receptors involved in feeding behavior. […] The data were analyzed by one-way analysis of variance, followed by multiple comparisons by Tukey's test. […] The error bars represent standard error (n=13-15).

[4] = test system: leptin; assay: Serum leptin level by ELISA after five-week oral administration; type: in vivo, mice; conditions: after five-week oral administration 0.3 mg/kg
Procedure: (§2) After the five-week oral administration of YHIEPV in Test Example 4, the blood was collected under anesthesia. Subsequently, the blood was centrifuged, and the serum was collected. The leptin level in the serum was determined by ELISA (according to the manufacturer's protocol) (N=10). The fat mass (peritesticular fat and mesenteric fat) was also measured at the same time as blood sampling (N=9). […] The data were analyzed by t-test. […] The error bars represent standard error (n=9-10).

[5] = test system: phosphorylated STAT3 signal; assay: Leptin resistance induced by Forskolin (Rap1 pathway stimulation) in hypothalamic organ culture; type: cell-based; conditions: Forskolin 20 μM and YHIEPV 100 μM 6 hours, leptin 60 nM 1 hour
Procedure: A hypothalamic organ culture system was preincubated with Forskolin (20 μM) and YHIEPV (100 μM) for 6 hours, followed by leptin stimulation (60 nM) for 1 hour. Subsequently, formalin fixation was performed and the phosphorylated STAT3 signal was detected by an immunostaining chemistry method (N=6-7). Forskolin is known to induce leptin resistance via the Rap1 activation pathway. […] The data were analyzed by one-way analysis of variance, followed by multiple comparisons by Tukey's test. […] The error bars represent standard error (n=5-9).

[6] = Long-term oral administration: body weight gain caused by high-fat diet; type: in vivo; conditions: 0.3 mg/kg oral once a day, male mice on high-fat diet
Procedure: Male mice raised for at least one month on a high-fat diet (60% kcal fat) were orally administered with YHIEPV (0.3 mg/kg) once a day. The body weight and the amount of food intake were measured daily, and the amount of food intake was calculated as cumulative food intake (N=10). […] The data were analyzed by two-way analysis of variance, followed by multiple comparisons by the Bonferroni test. […] The error bars represent standard error (n=10).

[7] = test system: IL-6; assay: Hypothalamic gene expression by RT-qPCR after high-fat diet; type: in vivo, mice; conditions: hypothalamus, 0.3 mg/kg oral for 5 days
Procedure: (§3) Male mice were raised for at least one month on a high-fat diet (60% kcal fat) and were orally administered with YHIEPV (0.3 mg/kg) for 5 days, and hypothalamic and brain samples were then collected. The expression levels of genes associated with leptin resistance (SOCS-3, PTP1B, and TCPTP) and inflammatory cytokines (IL-6, IL1β, TNFα) in the hypothalamus were measured by RT-qPCR. Active Rap1 in the brain was quantified by using the Active Rap1 Pull-down assay kit and the Detection Kit according to the manufacturer's protocol (N=4). […] The data were analyzed by t-test. […] The error bars represent standard error (n=4).

[8] = test system: TCPTP; assay: as above; type: in vivo, mice; conditions: hypothalamus, 0.3 mg/kg oral for 5 days
Procedure: as §3

[9] = test system: PTP1B; assay: as above; type: in vivo, mice; conditions: hypothalamus, 0.3 mg/kg oral for 5 days
Procedure: as §3

[10] = test system: IL1β; assay: as above; type: in vivo, mice; conditions: hypothalamus, 0.3 mg/kg oral for 5 days
Procedure: as §3

[11] = test system: TNFα; assay: as above; type: in vivo, mice; conditions: hypothalamus, 0.3 mg/kg oral for 5 days
Procedure: as §3

[12] = test system: SOCS-3; assay: as above; type: in vivo, mice; conditions: hypothalamus, 0.3 mg/kg oral for 5 days
Procedure: as §3

[13] = High-fat diet intake after oral administration under overnight fasting; type: in vivo; conditions: male mice raised on high-fat diet (60% kcal fat)
Procedure: (§4) Male mice raised on a high-fat diet (60% kcal fat) were orally administered with the digested product under overnight fasting conditions, and the amount of food intake was measured over time (N=14-15). […] The data were analyzed by two-way analysis of variance, followed by multiple comparisons by Tukey's test. […] The error bars represent standard error (n=14-15).
The data were analyzed by two-way analysis of variance, followed by multiple comparisons by Tukey's test. […] The error bars represent standard error (n=9).
as §4, with “Rubisco-derived peptide YHIEPV” for “the digested product”, “(N=11).” for “(N=14-15).”, “the Bonferroni” for “Tukey's”, “(n=11).” for “(n=14-15).”
The data were analyzed by two-way analysis of variance, followed by multiple comparisons by Tukey's test. […] The error bars represent standard error (n=7-8).
The data were analyzed by two-way analysis of variance, followed by multiple comparisons by Tukey's test. In FIG. 10, the error bars represent standard error (n=5-7).

[14] = molecular target: T2, δ opioid receptor (Mus musculus, UniProt P32300); assay: Impact of naltrindole on high-fat diet intake suppression induced by oral YHIEPV; type: in vivo, mice; conditions: YHIEPV oral plus naltrindole intraperitoneal; food intake 4 hours later
T2 construct: from tissue; host or cells: living male mice (whole animal)
T2 sequence (P32300 whole entry): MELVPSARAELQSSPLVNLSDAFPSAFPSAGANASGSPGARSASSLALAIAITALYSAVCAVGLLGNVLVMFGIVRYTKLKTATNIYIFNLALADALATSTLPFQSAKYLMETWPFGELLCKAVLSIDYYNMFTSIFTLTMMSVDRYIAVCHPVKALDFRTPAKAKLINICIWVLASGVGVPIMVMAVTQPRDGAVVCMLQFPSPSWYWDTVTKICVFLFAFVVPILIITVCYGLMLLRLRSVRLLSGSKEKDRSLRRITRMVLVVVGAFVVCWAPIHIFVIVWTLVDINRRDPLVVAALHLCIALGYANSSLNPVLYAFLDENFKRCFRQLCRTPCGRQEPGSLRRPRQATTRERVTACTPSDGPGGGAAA
Procedure: as §1

[15] = Fat mass (peritesticular and mesenteric fat) after five-week oral administration; type: in vivo, mice; conditions: after five-week oral administration 0.3 mg/kg
Procedure: as §2

[16] = test system: Active Rap1; assay: Active Rap1 pull-down assay in brain; type: in vivo, mice; conditions: 0.3 mg/kg oral for 5 days
Procedure: as §3

[17] = Anti-obesity effect of intracerebroventricularly administered leptin with oral YHIEPV; type: in vivo, mice; conditions: YHIEPV 0.3 mg/kg oral, leptin 0.5 μg intracerebroventricular
Procedure: A guide cannula was placed in the lateral ventricle of male mice raised on a high-fat diet (60% kcal fat) for at least one month, and a recovery period of at least 1 week was then provided. Subsequently, the body weight change and the amount of food intake were measured after the addition of YHIEPV (0.3 mg/kg, oral administration) and leptin (0.5 μg, intracerebroventricular administration) (N=10-12). […] The data were analyzed by two-way analysis of variance, followed by multiple comparisons by Tukey's test. […] The error bars represent standard error (n=10-12).

Substance	anxiolytic effect [1]	intracellular leptin sensitivity in the hypothalamus [2]	effect of suppressing high-fat diet intake in presence of MC4 receptor inhibitor [3]	blood leptin level [4]	leptin resistance induced by Forskolin [5]	body weight gain caused by a high-fat diet [6]	expression level of IL-6 [7]	expression level of TCPTP [8]	expression level of PTP1B [9]	expression level of IL1β [10]	expression level of TNFα [11]	expression level of SOCS-3 [12]	high-fat diet intake (amount of food intake over time) [13]	effect of suppressing high-fat diet intake in presence of δ opioid receptor inhibitor [14]	fat mass [15]	expression level of active Rap1 [16]	anti-obesity effect of intracerebroventricularly administered leptin (body weight change, food intake) [17]
YHIEPV (listed as Spinacia oleracea)	anxiolytic effect	enhanced	inhibited	decreased	improved	suppressed body weight gain	decreasing trend	significantly decreased	decreasing trend	significantly decreased	decreasing trend	significantly decreased	suppressed high-fat diet intake	inhibited	trend toward decrease	significantly decreased	enhanced
YKLTY (listed as Spinacia oleracea) [Rubisco-derived peptide, synthesized by solid-phase Fmoc method; contained in green leaf Rubisco digested product B]	–	enhanced	–	–	–	–	–	–	–	–	–	–	suppressed high-fat diet intake	–	–	–	–

— US20240301001A1, “PEPTIDE-CONTAINING COMPOSITION” (Kyoto University, priority 2021, published 2024)
